Patent US8946426B2, “Substituted bicyclic heterocyclic compounds as gamma secretase modulators” (Janssen Pharmaceuticals, Inc., priority 2009, dated 2015)

System: mouse Notch2
Assay: Notch cell-based assay (N2-CHO/DL-CHO co-culture, Dual-Glo luciferase, NICD production)
Conditions: N2-CHO/DL-CHO co-culture 16 H; five-point curve 3 μM-0.3 nM
Source text: The Notch cell-based assay was based on the interaction of Notch and its ligand in a co-culture system and utilized the Dual-Glo Luciferase Assay System (Promega) to monitor NICD production. Two stable cell lines, N2-CHO and DL-CHO, were established to express full-length mouse Notch2 and Delta respectively. Cells that expressed mouse Notch were also transfected with two plasmids, pTP1-Luc and pCMV-RLuc, to express firefly and Renilla luciferase. Expression of firefly luciferase was under the control of TP1 promoter that responded to NICD activation.
N2-CHO cells were seeded at 1×10^5/well in 24-well plates the day before transfection. On the second day, cells were double transfected with 3 μg/well pTP1-Luc (expressing firefly luciferase) and 0.3 ng/well pCMV-RLuc (expressing Renilla luciferase). After 6 H incubation, transfected N2-CHO cells were washed and DL-CHO cells (2×10^5 cells/well) were added.
Compounds were pre-mixed with DL-CHO cell suspension in a five-point curve. Typically, compound treatment was performed in duplicate with a serial 1:10 dilution (3 μM-0.3 nM) in DMSO. The final concentration of DMSO in a given culture was 1%. Controls included non-transfected cells and transfected cells treated with a GSI or DMSO only. Luciferase assays were performed after 16 H co-culture and compound treatment.
The luciferase assay was carried out according to manufacture's instructions. Briefly, cells were washed with PBS (Phosphate Buffered Saline), lysed with Passive Lysis Buffer (Promega), and incubated at room temperature for 20 min. Lysates were mixed with Dual-Glo Luciferase Reagent and the firefly luciferase activity was measured by reading the luminescence signal in the EnVision 2101 Multilabel reader. Dual-Glo Stop & Glo Reagent was then added to each well and the Renilla luciferase signal was measured.

Cc1ncc(-c2ccc(Nc3cccc4c3nc(-c3ccc(F)cc3)n4C(C)C)cn2)o1 [Compound 18]
average IC50 values from the Notch cell-based assay (luciferase assay readouts): non-inhibitory
